Source: PubChem BioAssay AID1259246 (Broad Institute, 2017)
Where “and” joins values, the source holds several entries; their conditions need not be identical. Equal values may be shown once. Inconclusive results are not listed. Calls of active or inactive are those of the source.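 The calls were made as follows: active = valid dose-response fit whose half-maximal growth-inhibiting concentration is at or below a set limit above the top tested dose; inconclusive = flat fit with effect between 30 and 70%, or poor fit; inactive = half-maximal concentration above a set limit.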

Assay: antibacterial activity against Clostridioides difficile – 10-point retest, dose response (AID 1259246)
Conditions: Clostridioides difficile clinical isolate growth, OD600, 24 h; at 60 µM (top of the series)

SMILES | activity change, negative = inhibition
COc1ccccc1C#Cc1ccc([C@H]2[C@@H](CO)N(C(=O)C3CCCCC3)[C@H]2C#N)cc1 | 2.35% (inactive)
C[C@H]1CN([C@@H](C)CO)C(=O)c2cccc(NC(=O)Nc3ccc(C(F)(F)F)cc3)c2O[C@H]1CN(C)S(=O)(=O)c1ccc(Cl)cc1 | 28.2% (inactive)
N#C[C@@H]1[C@@H](c2ccc(C#Cc3cccnc3)cc2)[C@@H](CO)N1C(=O)C1CCCCC1 | 1.92% (inactive)
Cc1noc(C)c1S(=O)(=O)Nc1ccc2c(c1)C(=O)N([C@@H](C)CO)C[C@H](C)[C@@H](CN(C)Cc1ccc3c(c1)OCO3)OCCCC[C@@H](C)O2 | 3.17% (inactive)
COc1ccccc1CNC(=O)C[C@H]1C[C@@H]2c3cc(NC(=O)C4CCC4)ccc3O[C@@H]2[C@@H](CO)O1 | 2.54% (inactive)
C[C@@H]1CN([C@H](C)CO)S(=O)(=O)c2ccc(/C=C/c3ccccc3)cc2O[C@H]1CN(C)Cc1ccccc1 | 2.59% (inactive)

Same assay, conditions: Clostridioides difficile clinical isolate growth, OD600, 24 h; at 68 µM (top of the series)

SMILES | activity change, negative = inhibition
O=C(C[C@H]1C[C@@H]2c3cc(NC(=O)C4CCC4)ccc3O[C@@H]2[C@@H](CO)O1)NCCN1CCCCC1 | -0.905% (inactive)

Same assay, conditions: Clostridioides difficile clinical isolate growth, OD600, 24 h; at 120 µM (top of the series)

SMILES | activity change, negative = inhibition
Cc1ccc(S(=O)(=O)N[C@@H]2CC[C@@H](CCNS(=O)(=O)Cc3ccccc3)O[C@H]2CO)cc1 | -1.85% (inactive)
O=C(C[C@H]1C[C@@H]2c3cc(NC(=O)NC4CCCC4)ccc3O[C@@H]2[C@@H](CO)O1)NCc1ccc2c(c1)OCO2 | -10.4% (inactive)
C[C@H]1CN([C@@H](C)CO)C(=O)c2cccc(NC(=O)Nc3ccc(C(F)(F)F)cc3)c2O[C@H]1CN(C)S(=O)(=O)c1ccc(Cl)cc1 | 51.5% (inactive)
CC(C)CC#Cc1ccc2c(c1)O[C@H](CN(C)Cc1ccc3c(c1)OCO3)[C@H](C)CN([C@@H](C)CO)S2(=O)=O | 26.5% (inactive)
COc1ccc(NC(=O)Nc2cccc3c2O[C@@H](CN(C)C(=O)NC2CCCCC2)[C@H](C)CN([C@H](C)CO)C3=O)cc1 | 1.64% (inactive)
C/C=C/c1ccc2c(c1)O[C@H](CN(C)Cc1ccc(F)cc1)[C@H](C)CN([C@@H](C)CO)S2(=O)=O | 7.75% (inactive)
C[C@H](CO)N1C[C@H](C)[C@H](CN(C)Cc2ccc(-c3ccccc3)cc2)Oc2c(NC(=O)Nc3ccc4c(c3)OCO4)cccc2C1=O | 24.3% (inactive)
C[C@@H]1CCCCO[C@H](CN(C)S(=O)(=O)c2ccc(F)cc2)[C@H](C)CN([C@@H](C)CO)C(=O)c2cc(NC(=O)Nc3cccc4ccccc34)ccc2O1 | 22.9% (inactive)
COc1ccc(NC(=O)Nc2cccc3c2O[C@H](CN(C)Cc2ccc(Oc4ccccc4)cc2)[C@@H](C)CN([C@H](C)CO)C3=O)cc1 | 17.1% (inactive)
COc1ccc(CN(C)C[C@H]2Oc3ccc(NC(=O)C4CC4)cc3CC(=O)N([C@@H](C)CO)C[C@H]2C)cc1 | -3.18% (inactive)
Cc1ccc(-c2ccc3c(c2)O[C@H](CN(C)Cc2ccncc2)[C@@H](C)CN([C@H](C)CO)S3(=O)=O)cc1 | 22.9% (inactive)
COc1ccc(NC(=O)Nc2cccc3c2O[C@@H](CN(C)Cc2ccc(Oc4ccccc4)cc2)[C@@H](C)CN([C@@H](C)CO)C3=O)cc1 | 30.5% (inactive)
N#C[C@H]1[C@@H](c2ccc(C#CC3CCCCC3)cc2)[C@@H](CO)N1C(=O)Cc1ccccn1 | 40.2% (inactive)
C[C@@H]1CN([C@@H](C)CO)S(=O)(=O)c2ccc(/C=C/c3ccccc3)cc2O[C@H]1CN(C)Cc1cccnc1 | 71.2% (inactive)
O=S(=O)(Cc1ccccc1)NCC[C@H]1CC[C@H](NS(=O)(=O)c2ccccc2)[C@H](CO)O1 | -7.57% (inactive)
C[C@H](CO)N1C[C@H](C)[C@@H](CN(C)Cc2ccc(-c3ccccc3)cc2)Oc2c(NC(=O)Nc3ccc(C(F)(F)F)cc3)cccc2C1=O | 12.2% (inactive)
C[C@@H]1CN([C@@H](C)CO)C(=O)Cc2cc(NC(=O)C3CC3)ccc2O[C@@H]1CN(C)Cc1ccc(C(F)(F)F)cc1 | 21.2% (inactive)
CO[C@@H]1CN(C)C(=O)c2ccc(NC(=O)c3nc4ccccc4s3)cc2OC[C@@H](C)N(Cc2cccnc2)C[C@H]1C | 14.9% (inactive)
CC(C)CC#Cc1ccc2c(c1)O[C@@H](CN(C)Cc1ccc3c(c1)OCO3)[C@H](C)CN([C@H](C)CO)S2(=O)=O | 17.8% (inactive)
C[C@@H]1CN([C@H](C)CO)C(=O)Cc2cc(NC(=O)CCCN(C)C)ccc2O[C@H]1CN(C)C | 0.476% (inactive)
CC(C)CC#Cc1ccc2c(c1)O[C@H](CN(C)Cc1ccc3c(c1)OCO3)[C@H](C)CN([C@H](C)CO)S2(=O)=O | 15.4% (inactive)
O=C(C[C@H]1C[C@H]2c3cc(NS(=O)(=O)c4ccc(F)cc4)ccc3O[C@H]2[C@H](CO)O1)NCc1ccc(-c2ccccc2)cc1 | 17.8% (inactive)

SMILES | activity change, negative = inhibition
COc1ccc(CN(C)C[C@@H]2OCCCC[C@@H](C)Oc3ccc(NC(=O)Nc4cccc5ccccc45)cc3C(=O)N([C@H](C)CO)C[C@H]2C)cc1 | 44.3% (inactive)
CC(C)CC#Cc1ccc2c(c1)O[C@@H](CN(C)Cc1cccnc1)[C@H](C)CN([C@@H](C)CO)S2(=O)=O | 29.9% (inactive)
CO[C@@H]1CN(C)C(=O)c2ccc(NC(=O)c3ccc(-c4ccccc4)cc3)cc2OC[C@H](C)NC[C@@H]1C | 17% (inactive)
C[C@H](CO)N1C[C@H](C)[C@@H](CN(C)C(=O)NC2CCCCC2)Oc2c(NC(=O)Nc3ccc(C(F)(F)F)cc3)cccc2C1=O | 28.9% (inactive)
CC(C)CC#Cc1ccc2c(c1)O[C@@H](CN(C)Cc1ccc3c(c1)OCO3)[C@H](C)CN([C@@H](C)CO)S2(=O)=O | 11% (inactive)
COc1ccc(CN(C)C[C@@H]2OCCCC[C@H](C)Oc3ccc(NC(=O)Nc4cccc5ccccc45)cc3C(=O)N([C@@H](C)CO)C[C@H]2C)cc1 | 42% (inactive)
C[C@H](CO)N1C[C@H](C)[C@@H](CN(C)Cc2cccnc2)Oc2cc(C#CC3CCCCC3)ccc2S1(=O)=O | 27.1% (inactive)
C[C@H]1CN([C@@H](C)CO)C(=O)c2cccc(NC(=O)Nc3ccccc3)c2O[C@@H]1CN(C)Cc1ccc(Oc2ccccc2)cc1 | 27.9% (inactive)
CCCC#Cc1ccc2c(c1)O[C@H](CN(C)Cc1ccc3c(c1)OCO3)[C@H](C)CN([C@H](C)CO)S2(=O)=O | 33% (inactive)
Cc1ccc(S(=O)(=O)N2C[C@@H](O)COC[C@H]3O[C@H](CC(=O)NCc4ccc(Cl)c(Cl)c4)CC[C@@H]32)cc1 | 22.9% (inactive) and 25.2% (inactive) and 97.3% (inactive)
CC(C)CC#Cc1ccc2c(c1)O[C@H](CN(C)Cc1ccc3c(c1)OCO3)[C@@H](C)CN([C@@H](C)CO)S2(=O)=O | 21.9% (inactive)
C[C@H](CO)N1C[C@H](C)[C@@H](CN(C)C(=O)Nc2ccc(C(F)(F)F)cc2)Oc2c(NC(=O)Nc3cccc4ccccc34)cccc2C1=O | 36.8% (inactive)
CC(C)CC#Cc1ccc2c(c1)O[C@H](CN(C)Cc1ccccc1F)[C@H](C)CN([C@@H](C)CO)S2(=O)=O | 26.2% (inactive)
CC(C)CC#Cc1ccc2c(c1)O[C@H](CN(C)Cc1ccccc1F)[C@H](C)CN([C@H](C)CO)S2(=O)=O | 21.7% (inactive)
COc1ccc(S(=O)(=O)N(C)C[C@H]2Oc3c(NC(=O)Nc4ccc5c(c4)OCO5)cccc3C(=O)N([C@@H](C)CO)C[C@H]2C)cc1 | 11.1% (inactive)
C[C@H]1CN([C@@H](C)CO)C(=O)c2cccc(NC(=O)Nc3ccc(C(F)(F)F)cc3)c2O[C@@H]1CN(C)Cc1ccc2c(c1)OCO2 | 34.1% (inactive)
C[C@H]1CCCCO[C@H](CN(C)S(=O)(=O)c2ccc(F)cc2)[C@@H](C)CN([C@@H](C)CO)C(=O)c2cc(NC(=O)Nc3cccc4ccccc34)ccc2O1 | 21.6% (inactive)
C[C@@H]1CN([C@H](C)CO)C(=O)Cc2cc(NC(=O)C3CC3)ccc2O[C@@H]1CN(C)Cc1ccccc1 | -3.71% (inactive)
CC(C)CC#Cc1ccc2c(c1)O[C@H](CN(C)CC1CCOCC1)[C@H](C)CN([C@H](C)CO)S2(=O)=O | 14.5% (inactive)
C[C@@H]1CN([C@H](C)CO)C(=O)c2cc(NC(=O)Nc3cccc4ccccc34)ccc2O[C@@H](C)CCCCO[C@@H]1CN(C)S(=O)(=O)c1ccc(F)cc1 | 12% (inactive)
COc1ccc(NC(=O)Nc2cccc3c2O[C@@H](CN(C)Cc2ccc(Oc4ccccc4)cc2)[C@H](C)CN([C@@H](C)CO)C3=O)cc1 | 18.2% (inactive)

Same assay, conditions: Clostridioides difficile clinical isolate growth, OD600, 24 h; at 135 µM (top of the series)

SMILES | activity change, negative = inhibition
Cc1ccc(S(=O)(=O)N[C@H]2CC[C@@H](CCNS(=O)(=O)Cc3ccccc3)O[C@H]2CO)cc1 | 3.07% (inactive)
C[C@H](CO)N1C[C@H](C)[C@H](CN(C)Cc2ccc(Oc3ccccc3)cc2)Oc2ccc(NC(=O)CCCN(C)C)cc2CC1=O | 34.3% (inactive)
C[C@@H]1CN([C@H](C)CO)C(=O)c2cc(NC(=O)Nc3ccc4c(c3)OCO4)ccc2O[C@H]1CN(C)Cc1ccccc1 | -5.34% (inactive)
C[C@@H]1CN([C@@H](C)CO)C(=O)Cc2cc(NC(=O)C3CC3)ccc2O[C@H]1CN(C)Cc1ccc(Oc2ccccc2)cc1 | 48% (inactive)
C[C@@H]1CCCCO[C@@H](CN(C)S(=O)(=O)c2ccc(F)cc2)[C@@H](C)CN([C@H](C)CO)C(=O)c2cc(NC(=O)Nc3cccc4ccccc34)ccc2O1 | 14.6% (inactive)
O=C(N[C@H]1CC[C@H](CCNS(=O)(=O)Cc2ccccc2)O[C@H]1CO)c1ccccc1F | -3.44% (inactive)
CO[C@@H]1CN(C)C(=O)c2cc(NC(=O)c3nc4ccccc4s3)ccc2OC[C@@H](C)N(Cc2ccncc2)C[C@H]1C | 14.2% (inactive)
C[C@H]1CN([C@@H](C)CO)C(=O)Cc2cc(NC(=O)CCCN(C)C)ccc2O[C@H]1CN(C)Cc1ccc(Oc2ccccc2)cc1 | 10.5% (inactive)
